Results on four molecules are retold here after publication PMC2360155, “Novel retinoic acid metabolism blocking agents have potent inhibitory activities on human breast cancer cells and tumour growth” (British Journal of Cancer, 2007).

A value given as a limit tells only on which side of the number the result lay.

For orientation: IC50 means the concentration that inhibits the measured activity by half. In general, Kd refers to the constant that tells how readily two partners part at equilibrium. Low values mean a tighter complex, high ones a looser complex.

Assay [1] deals with T1, CRABPI (Mus musculus, UniProt P62965).
T1 construct: Wild-type full-length cDNAs for mouse CRABPI and CRABPII were subcloned into the prokaryotic expression vector pRSETB; pRSETB vector fusion leader (purified on Ni-NTA, so a His tag); made in house; host or cells: Escherichia coli BL21(DE3)pLys
T1 sequence (P62965 whole entry, the tested form may be a part): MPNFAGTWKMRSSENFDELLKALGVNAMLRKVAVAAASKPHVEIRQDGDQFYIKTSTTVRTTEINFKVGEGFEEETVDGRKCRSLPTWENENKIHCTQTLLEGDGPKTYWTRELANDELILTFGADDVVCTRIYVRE
The assay can be described thus: CRABP competition binding assay, CRABPI. As to conditions: competition with [3H]-all-trans-RA; read-out: CRAPBI IC50. The procedure:
IC50 values were calculated as described above in the RAR binding studies.

Assay [2] deals with T2, CRABPII (Mus musculus, UniProt P22935).
T2 construct: Wild-type full-length cDNAs for mouse CRABPI and CRABPII were subcloned into the prokaryotic expression vector pRSETB; pRSETB vector fusion leader (purified on Ni-NTA, so a His tag); made in house; host or cells: Escherichia coli BL21(DE3)pLys
T2 sequence (P22935 1-138): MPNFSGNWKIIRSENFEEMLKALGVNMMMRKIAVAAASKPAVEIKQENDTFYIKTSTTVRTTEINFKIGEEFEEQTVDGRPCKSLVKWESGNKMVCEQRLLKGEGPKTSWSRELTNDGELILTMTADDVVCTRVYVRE
Briefly: CRABP competition binding assay, CRABPII. Particulars: for IC50: competition with [3H]-all-trans-RA. The procedure:
Wild-type full-length cDNAs for mouse CRABPI and CRABPII were subcloned into the prokaryotic expression vector pRSETB and transformed into Escherichia coli strain BL21(DE3)pLys ([Chen et al, 1995]). Recombinant fusion proteins were prepared essentially as we have described previously using Ni-NTA resin ([Chen et al, 1995]). The binding of each RAMBA to CRABPI and CRABPII was determined by competition binding assays as described previously ([Chen et al, 1995]). […] IC50 values were calculated as described above in the RAR binding studies.

Assay [3] has as its system T47D cells. Also on record: method as in Patel et al. (2004). Particulars: inhibition of cell proliferation by 50%; ref Patel et al. (2004); read-out: Cellular IC50, T47D; cited from earlier work.
Assay [4] concerns MCF-7 cells. More on the design: method as in Patel et al. (2004). As to conditions: inhibition of cell proliferation by 50%; ref Patel et al. (2004); read-out: Cellular IC50, MCF-7; cited from earlier work.
Assay [5] relates to CK 8/18. The assay can be described thus: Western immunoblotting for CK 8/18 in MCF-7 and T47D cells. It counts as cell-based, human. Particulars: 6 days; for Effect on expression of CK 8/18 (in words): 5 μM, MCF-7 cells; for Increase in expression of CK 8/18 compared with control: 1 and 5 μM, MCF-7 and T47D cells. The procedure: At the end of the treatment, cells were scrapped and collected by washing with ice-cold PBS in a centrifuge tube. Cells were centrifuged at 2500 r.p.m. for 10 min, the pellet was again washed with ice-cold PBS and centrifuged. The cell pellet was then suspended in chilled cell lysis buffer (0.1 M Tris–HCl, 0.5% Triton X-100, protease inhibitor cocktail) and sonicated on ice for 10–15 s. The homogenate was kept on ice for 30 min and then centrifuged at 13 000 r.p.m. for 30 min. The supernatant was used as cell lysate. The cell lysates were stored at −80°C. Protein concentration of the cell lysates was determined using Bio-Rad protein assay reagents.
Protein lysates from MCF-7 and T47D cells were subjected to sodium dodecyl sulphate–polyacrylamide gel electrophoresis (SDS–PAGE) and immunoblotted for different proteins. Equal amounts of protein (25–50 μg) were subjected to SDS–PAGE at 60 V for 3 h using the mini PROTEAN3 electrophoresis module assembly (Bio-Rad, Hercules, CA, USA), and transferred to nitrocellulose membranes (Hybond ECL, Amersham). Immunodetections were carried out using antibodies against CK 8/18 (1° antibody – 1 : 8000 in 10% milk PBST), E-cadherin (1° antibody – 1 : 1000 in 5% milk in TBST) and ER-α (1° antibody – 1 : 200 in 5% milk PBST) purchased from Santa Cruz Biotechnology Inc. Antibodies against PARP (1° antibody – 1 : 1000 in 5% milk TBST), cyclin- D1 (1° antibody – 1 : 2000 in 10% milk TBST), caspase-9 (1° antibody – 1 : 1000 in 10% milk TBST) and BAD (1° antibody – 1 : 1000 in 5% BSA TBST) were obtained from Cell Signaling Technology. Antibody for β-actin was obtained from Calbiochem (CA, USA). Secondary anti-mouse IgG HRP conjugate antibody was purchased from Calbiochem and Bio-Rad. Secondary anti-rabbit IgG HRP conjugate antibody was bought from Bio-Rad as well as from Kirkegaard and Perry laboratories (Gaithersburg, MD, USA). Immunoreactive bands were visualised using the enhanced chemiluminescence detection reagents and analysis system (Amersham Bioscences) according to the manufacturer's instructions and quantified by densitometry using ImageQuant software version 5.
The effects of these agents on the expression levels of markers associated with differentiation (CK 8/18 and ER-α) were investigated following established procedures ([Jing et al, 1996]; [Korsching et al, 2002]; [Kim and Freeman, 2003]; [Woelfle et al, 2004]). […] At the end of the treatment, cell lysates were prepared and the expression of cytoskeletal proteins CK 8/18 were evaluated by Western immunoblotting. […] Unexpectedly, VN/66-1 and VN/69-1 caused downregulation in the expression of CK 8/18.
Numbers below the blot show fold increase in expression of the protein as analysed by ImageQuant densitometry analysis. […]

Assay [6] concerns the target T3, RARα (Mus musculus, UniProt P11416).
T3 sequence (P11416 1-462): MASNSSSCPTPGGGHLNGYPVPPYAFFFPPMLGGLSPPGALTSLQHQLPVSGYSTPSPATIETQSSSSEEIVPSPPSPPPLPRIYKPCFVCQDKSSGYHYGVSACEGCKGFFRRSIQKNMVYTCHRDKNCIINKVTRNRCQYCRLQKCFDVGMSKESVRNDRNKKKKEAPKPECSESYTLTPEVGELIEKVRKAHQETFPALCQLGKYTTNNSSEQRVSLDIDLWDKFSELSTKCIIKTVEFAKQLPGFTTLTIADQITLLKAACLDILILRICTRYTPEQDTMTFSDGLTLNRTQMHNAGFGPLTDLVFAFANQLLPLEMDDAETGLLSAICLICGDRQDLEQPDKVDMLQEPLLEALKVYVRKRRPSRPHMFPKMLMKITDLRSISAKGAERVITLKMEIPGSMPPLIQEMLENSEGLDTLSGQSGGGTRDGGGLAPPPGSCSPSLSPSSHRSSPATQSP
The assay can be described thus: Retinoid receptor competition binding assay, RARα. Also on record: The full-length cDNA clones for RARα, RARβ, RARγ and RXRα were cloned into the prokaryotic expression vector pET29; S-Tag; made in house; host or cells: prokaryotic host (pET29 vector). As to conditions: competition with 1.0 nM [3H]-all-trans-RA.

As for `CC1=C(/C=C/C(C)=C/C=C/C(C)=C/C(=O)Nc2ccc(O)cc2)C(C)(C)CCC1n1ccnc1` (stereo not drawn) [VN/66-1], the IC50 is over 500 nM in assay [1]; over 500 nM in assay [2]; 570 nM in assay [3]; 590 nM in assay [4]; over 1000 nM in assay [6]. For the same molecule, the “Effect on expression of CK 8/18 (in words)” value in assay [5] is “downregulation”.
In turn, `CC1=C(/C=C/C(C)=C/C=C/C(C)=C/C(=O)O)C(C)(C)CCC1` [ATRA, all-trans-retinoic acid, reference compound] registered a Kd in assay [2] (for comparison) of 60 nM. Moreover, the IC50 in assay [3] was 8 nM; in assay [4], 585 nM. Also, the “Increase in expression of CK 8/18 compared with control” value in assay [5] is 2–3 fold.
For `CC1=C(/C=C/C(C)=C/C=C/C(C)=C\C(=O)Nc2ccc(O)cc2)C(C)(C)CCC1n1ccnc1` (stereo not drawn) [VN/69-1], the IC50 in assay [1] is over 500 nM; in assay [2], over 500 nM; in assay [4], 609 nM; in assay [6], over 1000 nM. The “Effect on expression of CK 8/18 (in words)” value in assay [5] is reported as “downregulation”.
Take `CC1=C(/C=C/C(C)=C/C=C/C(C)=C/C(=O)O)C(C)(C)CCC1n1ccnc1` (stereo not drawn) [VN/14-1]: the half-maximal inhibitory concentration (IC50) in assay [1] was over 500 nM; in assay [2], over 500 nM; in assay [3], 3 nM; in assay [4], 494 nM; in assay [6], 16 nM. The “Increase in expression of CK 8/18 compared with control” value in assay [5] is listed as 2–3 fold.
